Our source for the Kd values is article PMC4769319, “Cohesin Releases DNA through Asymmetric ATPase-Driven Ring Opening” (Molecular Cell, 2016).

pKd: −log10 of the molar value.

In this assay the target is T1, Smc1/Smc3 heterodimer with Scc1-C (cohesin) (Saccharomyces cerevisiae, UniProt P32908+P47037).
T1 construct: N-terminal tags; Sf9 insect cells; fluorescently labelled for MST; with Sister chromatid cohesion protein 1
T1 sequence (P32908 1-1225): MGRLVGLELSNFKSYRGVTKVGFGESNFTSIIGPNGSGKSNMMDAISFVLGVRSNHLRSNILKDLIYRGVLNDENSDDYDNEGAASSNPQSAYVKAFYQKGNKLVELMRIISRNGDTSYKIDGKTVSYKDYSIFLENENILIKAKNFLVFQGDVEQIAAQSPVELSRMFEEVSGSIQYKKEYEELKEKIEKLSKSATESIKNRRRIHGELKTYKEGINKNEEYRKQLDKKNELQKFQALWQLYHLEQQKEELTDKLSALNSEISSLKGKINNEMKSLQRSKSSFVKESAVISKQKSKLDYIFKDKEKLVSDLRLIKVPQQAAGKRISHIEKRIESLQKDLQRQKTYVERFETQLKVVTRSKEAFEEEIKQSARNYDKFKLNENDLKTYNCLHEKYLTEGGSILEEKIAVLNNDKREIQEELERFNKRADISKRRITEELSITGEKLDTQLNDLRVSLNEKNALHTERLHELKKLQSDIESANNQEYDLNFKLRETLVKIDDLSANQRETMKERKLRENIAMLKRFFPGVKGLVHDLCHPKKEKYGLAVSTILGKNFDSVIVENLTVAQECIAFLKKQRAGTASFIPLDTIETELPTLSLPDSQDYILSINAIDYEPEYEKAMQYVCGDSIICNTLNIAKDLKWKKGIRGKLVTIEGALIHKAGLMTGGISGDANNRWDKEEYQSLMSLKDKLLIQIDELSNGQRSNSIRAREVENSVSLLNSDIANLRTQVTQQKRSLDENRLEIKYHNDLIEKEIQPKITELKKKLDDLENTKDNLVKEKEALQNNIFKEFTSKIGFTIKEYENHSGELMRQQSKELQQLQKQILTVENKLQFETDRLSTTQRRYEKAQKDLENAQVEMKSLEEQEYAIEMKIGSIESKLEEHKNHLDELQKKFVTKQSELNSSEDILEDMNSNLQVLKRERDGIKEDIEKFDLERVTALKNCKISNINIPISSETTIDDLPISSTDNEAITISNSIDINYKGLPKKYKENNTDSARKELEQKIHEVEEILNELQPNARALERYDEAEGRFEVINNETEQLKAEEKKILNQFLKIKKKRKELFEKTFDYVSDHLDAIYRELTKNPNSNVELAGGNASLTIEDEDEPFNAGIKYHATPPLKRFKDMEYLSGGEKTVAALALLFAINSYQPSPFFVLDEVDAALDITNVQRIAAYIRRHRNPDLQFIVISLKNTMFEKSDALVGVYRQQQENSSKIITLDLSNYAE
T1 sequence (P47037 1-1230): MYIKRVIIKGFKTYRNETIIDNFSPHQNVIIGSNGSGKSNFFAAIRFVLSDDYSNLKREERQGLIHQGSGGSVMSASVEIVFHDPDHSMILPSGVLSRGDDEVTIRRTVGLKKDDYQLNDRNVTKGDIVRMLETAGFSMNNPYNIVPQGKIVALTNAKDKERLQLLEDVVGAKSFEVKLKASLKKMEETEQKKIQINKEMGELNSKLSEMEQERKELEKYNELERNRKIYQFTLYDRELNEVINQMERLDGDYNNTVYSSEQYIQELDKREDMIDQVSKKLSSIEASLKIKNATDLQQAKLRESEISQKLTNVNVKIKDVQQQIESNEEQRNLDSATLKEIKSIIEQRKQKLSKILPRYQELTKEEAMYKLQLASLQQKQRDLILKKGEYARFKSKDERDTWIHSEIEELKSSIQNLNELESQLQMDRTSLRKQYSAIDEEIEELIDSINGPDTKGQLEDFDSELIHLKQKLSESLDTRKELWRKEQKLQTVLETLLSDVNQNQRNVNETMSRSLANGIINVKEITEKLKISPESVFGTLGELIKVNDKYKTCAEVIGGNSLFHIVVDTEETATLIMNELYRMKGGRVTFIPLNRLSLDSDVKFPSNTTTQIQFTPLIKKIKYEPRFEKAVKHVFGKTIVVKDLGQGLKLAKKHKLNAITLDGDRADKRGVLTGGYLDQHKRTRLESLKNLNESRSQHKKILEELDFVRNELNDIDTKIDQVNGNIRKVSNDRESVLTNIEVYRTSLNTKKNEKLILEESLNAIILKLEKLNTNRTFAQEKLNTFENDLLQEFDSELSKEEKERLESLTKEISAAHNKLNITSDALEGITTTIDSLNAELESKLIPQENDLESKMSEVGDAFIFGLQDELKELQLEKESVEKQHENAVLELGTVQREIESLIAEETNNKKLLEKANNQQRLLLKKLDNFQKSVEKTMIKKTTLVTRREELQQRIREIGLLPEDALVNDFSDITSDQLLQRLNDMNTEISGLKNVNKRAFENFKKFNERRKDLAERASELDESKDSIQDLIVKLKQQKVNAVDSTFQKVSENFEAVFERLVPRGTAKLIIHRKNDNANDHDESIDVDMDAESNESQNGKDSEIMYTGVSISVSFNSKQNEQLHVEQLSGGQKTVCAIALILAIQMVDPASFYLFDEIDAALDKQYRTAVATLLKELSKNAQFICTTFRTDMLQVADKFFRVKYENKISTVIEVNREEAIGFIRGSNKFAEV
T1 sequence (Q12158 1-566 partner): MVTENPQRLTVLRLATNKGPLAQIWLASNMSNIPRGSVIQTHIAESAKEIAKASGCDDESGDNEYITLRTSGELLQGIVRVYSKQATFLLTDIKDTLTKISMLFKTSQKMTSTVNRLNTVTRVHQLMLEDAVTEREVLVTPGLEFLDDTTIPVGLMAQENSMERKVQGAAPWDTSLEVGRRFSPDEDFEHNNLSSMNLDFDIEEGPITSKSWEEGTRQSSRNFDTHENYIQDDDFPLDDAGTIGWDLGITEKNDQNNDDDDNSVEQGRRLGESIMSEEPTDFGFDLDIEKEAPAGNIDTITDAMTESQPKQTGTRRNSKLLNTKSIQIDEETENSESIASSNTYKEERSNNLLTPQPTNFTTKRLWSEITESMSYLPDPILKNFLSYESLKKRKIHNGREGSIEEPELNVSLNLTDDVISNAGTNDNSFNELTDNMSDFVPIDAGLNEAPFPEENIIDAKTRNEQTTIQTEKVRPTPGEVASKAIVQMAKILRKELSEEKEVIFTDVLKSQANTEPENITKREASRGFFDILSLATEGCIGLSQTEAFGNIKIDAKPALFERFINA
Kind of assay: microscale thermophoresis. The class given is binding. The following applies: fluorescently labelled protein; Smc1 co-purified with Scc1-C, plus Smc3; read-out: affinity. The text has this:
microscale thermophoresis on Smc1/Smc3 heterodimer with Scc1-C (cohesin) | wild-type and mutant cohesin complexes appear to have similar affinities to ADP
(MST reads how a fluorescent partner responds to local heating, with and without ligand.)

For the compound `Nc1ncnc2c1ncn2[C@@H]1O[C@H](COP(=O)(O)OP(=O)(O)O)[C@@H](O)[C@H]1O` [ADP], the pKd was under 3.00.
